Counter-ions that a name gives are not always drawn.
Tests used:
[1] = biological target: T1, human JAK3 kinase domain (JH1) (Homo sapiens, UniProt P52333); test: JH1 biochemical assay for JAK3 (ADP-Glo kinase assay, recombinant JH1 catalytic domain, JAK3-974 peptide, 4 μM ATP)
T1 construct: recombinantly generated catalytic kinase (also known as JH1) domain of human JAK1, JAK2, JAK3 and TYK2
Procedure, shortened: (§1)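 Luminescent ADP read-out after residual ATP depletion, 100 min reaction. Kinase domain concentrations were 4 nM (JAK1), 0.2 nM (JAK2), 0.3 nM (JAK3) and 2 nM (TYK2), each with 50 μM peptide. IC50 values came from 4-parameter logistic fits over 11 points, 3-fold steps, top 10 μM or 1 μM.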

[2] = biological target: JAK1 kinase activity on STAT3 in TF1 cells (Homo sapiens, UniProt P23458); test: pSTAT3 cell assay (MSD; TF1 cells, 30 ng/mL IL-6 stimulation); format: cell-based; conditions: 30 ng/mL IL-6, 15 minutes
Procedure, shortened: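 IC50 values derive from 4-parameter logistic fits of normalized pSTAT3 signal, measured by MSD with anti-STAT3 antibodies. TF1 cells, serum-starved beforehand, received compound for 1 hour (top concentration 10 μM, four-fold steps, 10 points) before a 15-minute IL-6 (30 ng/mL) stimulus.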

[3] = biological target: T2, human JAK1 kinase domain (JH1) (Homo sapiens, UniProt P23458); test: JH1 biochemical assay for JAK1 (ADP-Glo kinase assay, recombinant JH1 catalytic domain, JAK3-342 peptide, 35 μM ATP)
T2 construct: recombinantly generated catalytic kinase (also known as JH1) domain of human JAK1, JAK2, JAK3 and TYK2
Procedure, shortened: as §1

[4] = biological target: JAK2 kinase activity on STAT5 in TF1 cells (Homo sapiens, UniProt O60674); test: pSTAT5 cell assay (MSD; TF1 cells, 30 ng/mL IL-3 stimulation); format: cell-based; conditions: 30 ng/mL IL-3, 15 minutes
Procedure, shortened: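 IC50 from a 4-parameter logistic fit of normalized pSTAT5 signal, measured by MSD in lysates of TF1 cells. Cells were serum-starved, exposed to compound for 1 h (top concentration 10 μM, four-fold, 10 points), then given IL-3 at 30 ng/mL for 15 min.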

[5] = biological target: Tyk2 kinase activity on STAT4 in NK92 cells (Homo sapiens, UniProt P29597); test: pSTAT4 cell assay (MSD; NK92 cells, 30 ng/mL IL2 stimulation); format: cell-based; conditions: 30 ng/mL IL2, 15 minutes
Procedure, shortened: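 Cells natively expressing STAT4 and Tyk2 (NK92) are serum-starved to lower background phosphorylation, exposed to compound for 1 hr over a 10-point four-fold series starting at 10 μM, and stimulated with 30 ng/mL IL2 for 15 minutes. Phosphorylation is quantified on MSD with anti-STAT4 antibodies.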

[6] = biological target: T3, human TYK2 kinase domain (JH1) (Homo sapiens, UniProt P29597); test: JH1 biochemical assay for TYK2 (ADP-Glo kinase assay, recombinant JH1 catalytic domain, JAK3-974 peptide, 10 μM ATP)
T3 construct: recombinantly generated catalytic kinase (also known as JH1) domain of human JAK1, JAK2, JAK3 and TYK2
T3 sequence (P29597 897-1176 limits assumed): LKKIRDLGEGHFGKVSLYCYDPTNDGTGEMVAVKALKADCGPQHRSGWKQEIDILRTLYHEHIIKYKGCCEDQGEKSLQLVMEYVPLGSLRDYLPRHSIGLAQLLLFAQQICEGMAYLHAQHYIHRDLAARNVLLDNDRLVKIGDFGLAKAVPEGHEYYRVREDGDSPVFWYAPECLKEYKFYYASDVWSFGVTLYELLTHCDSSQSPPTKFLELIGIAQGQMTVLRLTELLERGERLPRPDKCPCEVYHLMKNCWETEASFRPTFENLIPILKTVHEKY
Procedure, shortened: as §1

[7] = biological target: T4, human JAK2 kinase domain (JH1) (Homo sapiens, UniProt O60674); test: JH1 biochemical assay for JAK2 (ADP-Glo kinase assay, recombinant JH1 catalytic domain, JAK3-974 peptide, 15 μM ATP)
T4 construct: recombinantly generated catalytic kinase (also known as JH1) domain of human JAK1, JAK2, JAK3 and TYK2
Procedure, shortened: as §1

Tyk2 kinase activity on STAT4 in NK92 cells, sequence (P29597 whole entry): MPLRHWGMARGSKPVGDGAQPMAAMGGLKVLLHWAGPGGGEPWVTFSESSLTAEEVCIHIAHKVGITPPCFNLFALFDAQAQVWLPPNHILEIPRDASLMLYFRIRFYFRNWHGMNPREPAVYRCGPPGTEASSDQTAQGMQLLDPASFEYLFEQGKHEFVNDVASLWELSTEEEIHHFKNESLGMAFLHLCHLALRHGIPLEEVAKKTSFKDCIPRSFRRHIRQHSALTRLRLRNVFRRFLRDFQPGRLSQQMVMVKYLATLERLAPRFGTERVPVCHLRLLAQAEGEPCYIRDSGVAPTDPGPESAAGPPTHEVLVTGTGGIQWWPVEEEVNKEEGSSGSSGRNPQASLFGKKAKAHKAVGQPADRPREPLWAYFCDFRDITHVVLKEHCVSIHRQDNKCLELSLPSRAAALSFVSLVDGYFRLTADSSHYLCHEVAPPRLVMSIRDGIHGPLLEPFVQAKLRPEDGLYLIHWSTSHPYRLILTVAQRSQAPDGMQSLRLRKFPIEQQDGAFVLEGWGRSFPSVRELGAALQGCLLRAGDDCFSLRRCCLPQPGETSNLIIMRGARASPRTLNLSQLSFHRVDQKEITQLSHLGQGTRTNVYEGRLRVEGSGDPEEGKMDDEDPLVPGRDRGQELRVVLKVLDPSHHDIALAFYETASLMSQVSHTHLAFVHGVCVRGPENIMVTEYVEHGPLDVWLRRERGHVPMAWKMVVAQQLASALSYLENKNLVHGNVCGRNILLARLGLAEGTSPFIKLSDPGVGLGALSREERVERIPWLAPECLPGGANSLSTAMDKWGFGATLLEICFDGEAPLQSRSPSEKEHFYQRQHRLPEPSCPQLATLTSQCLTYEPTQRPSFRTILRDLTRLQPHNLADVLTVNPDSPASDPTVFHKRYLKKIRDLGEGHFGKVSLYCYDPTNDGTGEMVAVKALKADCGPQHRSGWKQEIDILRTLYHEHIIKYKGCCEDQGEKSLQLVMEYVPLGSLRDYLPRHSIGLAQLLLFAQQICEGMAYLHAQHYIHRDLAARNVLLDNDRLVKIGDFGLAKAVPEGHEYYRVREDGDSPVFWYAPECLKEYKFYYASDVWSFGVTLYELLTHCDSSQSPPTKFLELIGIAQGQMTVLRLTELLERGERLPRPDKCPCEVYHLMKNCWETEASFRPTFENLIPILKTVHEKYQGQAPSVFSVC
JAK2 kinase activity on STAT5 in TF1 cells, sequence (O60674 whole entry): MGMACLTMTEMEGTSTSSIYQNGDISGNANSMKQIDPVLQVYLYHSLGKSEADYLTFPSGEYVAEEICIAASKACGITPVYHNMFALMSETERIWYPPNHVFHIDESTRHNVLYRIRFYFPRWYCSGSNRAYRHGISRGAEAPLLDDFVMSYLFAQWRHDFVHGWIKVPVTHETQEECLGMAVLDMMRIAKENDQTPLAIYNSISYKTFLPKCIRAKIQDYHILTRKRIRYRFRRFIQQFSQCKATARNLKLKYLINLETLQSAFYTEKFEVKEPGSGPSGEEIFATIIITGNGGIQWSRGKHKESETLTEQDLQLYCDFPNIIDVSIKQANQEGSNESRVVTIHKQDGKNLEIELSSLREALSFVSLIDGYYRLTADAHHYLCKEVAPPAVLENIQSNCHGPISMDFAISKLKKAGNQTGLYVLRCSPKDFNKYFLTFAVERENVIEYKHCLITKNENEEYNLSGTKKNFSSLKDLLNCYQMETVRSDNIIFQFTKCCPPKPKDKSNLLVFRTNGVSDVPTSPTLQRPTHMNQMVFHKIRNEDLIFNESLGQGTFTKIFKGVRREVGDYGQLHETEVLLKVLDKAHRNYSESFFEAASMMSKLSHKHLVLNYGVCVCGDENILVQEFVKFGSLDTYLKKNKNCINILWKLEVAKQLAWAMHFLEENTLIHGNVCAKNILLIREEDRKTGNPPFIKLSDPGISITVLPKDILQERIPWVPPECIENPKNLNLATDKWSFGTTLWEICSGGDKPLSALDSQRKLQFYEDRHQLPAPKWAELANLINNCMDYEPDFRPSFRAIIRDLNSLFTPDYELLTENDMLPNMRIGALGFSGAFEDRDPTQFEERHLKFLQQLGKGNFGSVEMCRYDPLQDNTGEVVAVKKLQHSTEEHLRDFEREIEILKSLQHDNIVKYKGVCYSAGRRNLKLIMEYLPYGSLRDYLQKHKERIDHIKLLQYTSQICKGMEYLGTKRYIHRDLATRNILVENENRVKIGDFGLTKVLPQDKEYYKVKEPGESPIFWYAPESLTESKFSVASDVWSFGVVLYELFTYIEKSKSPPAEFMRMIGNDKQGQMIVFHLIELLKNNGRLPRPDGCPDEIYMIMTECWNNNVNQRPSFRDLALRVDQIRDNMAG
T1 sequence (P52333 822-1111 limits assumed): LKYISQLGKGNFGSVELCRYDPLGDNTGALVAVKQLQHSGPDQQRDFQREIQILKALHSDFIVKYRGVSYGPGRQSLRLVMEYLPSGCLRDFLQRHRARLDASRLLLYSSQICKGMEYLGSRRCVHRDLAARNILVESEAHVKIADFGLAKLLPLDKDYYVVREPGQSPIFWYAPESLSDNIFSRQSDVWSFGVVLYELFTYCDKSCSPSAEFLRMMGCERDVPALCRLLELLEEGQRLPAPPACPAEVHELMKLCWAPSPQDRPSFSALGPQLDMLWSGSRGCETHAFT
T2 sequence (P23458 875-1153 limits assumed): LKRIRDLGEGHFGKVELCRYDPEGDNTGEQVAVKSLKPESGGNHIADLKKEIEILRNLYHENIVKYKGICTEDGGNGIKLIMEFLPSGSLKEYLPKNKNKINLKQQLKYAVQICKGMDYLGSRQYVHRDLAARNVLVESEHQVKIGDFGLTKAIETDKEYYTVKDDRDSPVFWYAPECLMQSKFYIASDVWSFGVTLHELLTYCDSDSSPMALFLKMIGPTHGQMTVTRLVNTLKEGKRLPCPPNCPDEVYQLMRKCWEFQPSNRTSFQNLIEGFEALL
JAK1 kinase activity on STAT3 in TF1 cells, sequence (P23458 whole entry): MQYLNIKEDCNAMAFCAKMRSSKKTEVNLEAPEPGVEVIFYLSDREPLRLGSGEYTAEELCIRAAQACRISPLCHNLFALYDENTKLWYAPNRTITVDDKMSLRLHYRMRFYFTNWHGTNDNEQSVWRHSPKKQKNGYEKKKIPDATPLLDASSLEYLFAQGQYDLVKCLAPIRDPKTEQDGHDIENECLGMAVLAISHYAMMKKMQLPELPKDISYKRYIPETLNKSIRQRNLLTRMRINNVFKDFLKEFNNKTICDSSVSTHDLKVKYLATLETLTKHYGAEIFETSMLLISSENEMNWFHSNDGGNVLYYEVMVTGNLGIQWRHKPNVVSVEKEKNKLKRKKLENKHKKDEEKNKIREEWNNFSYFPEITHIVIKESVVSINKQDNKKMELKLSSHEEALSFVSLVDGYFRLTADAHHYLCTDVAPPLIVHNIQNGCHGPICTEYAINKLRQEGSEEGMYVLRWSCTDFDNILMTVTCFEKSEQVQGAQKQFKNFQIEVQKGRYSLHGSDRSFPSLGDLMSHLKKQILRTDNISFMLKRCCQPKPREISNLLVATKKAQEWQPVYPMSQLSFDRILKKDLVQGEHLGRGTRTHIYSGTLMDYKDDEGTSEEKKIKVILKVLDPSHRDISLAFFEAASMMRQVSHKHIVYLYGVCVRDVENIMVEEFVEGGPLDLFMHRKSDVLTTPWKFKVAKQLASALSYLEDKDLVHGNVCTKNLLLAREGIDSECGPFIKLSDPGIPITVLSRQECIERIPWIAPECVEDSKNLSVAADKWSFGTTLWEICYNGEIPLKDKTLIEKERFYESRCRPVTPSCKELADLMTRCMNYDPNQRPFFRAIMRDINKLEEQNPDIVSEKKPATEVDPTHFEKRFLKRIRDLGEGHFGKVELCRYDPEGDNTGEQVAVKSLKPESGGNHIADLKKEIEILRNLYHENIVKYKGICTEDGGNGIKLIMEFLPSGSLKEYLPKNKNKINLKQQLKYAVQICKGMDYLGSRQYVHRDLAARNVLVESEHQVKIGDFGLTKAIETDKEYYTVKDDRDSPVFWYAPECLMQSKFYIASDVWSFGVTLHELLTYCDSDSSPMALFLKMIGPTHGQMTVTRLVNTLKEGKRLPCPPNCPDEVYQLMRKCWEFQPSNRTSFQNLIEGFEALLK
T4 sequence (O60674 849-1124 limits assumed): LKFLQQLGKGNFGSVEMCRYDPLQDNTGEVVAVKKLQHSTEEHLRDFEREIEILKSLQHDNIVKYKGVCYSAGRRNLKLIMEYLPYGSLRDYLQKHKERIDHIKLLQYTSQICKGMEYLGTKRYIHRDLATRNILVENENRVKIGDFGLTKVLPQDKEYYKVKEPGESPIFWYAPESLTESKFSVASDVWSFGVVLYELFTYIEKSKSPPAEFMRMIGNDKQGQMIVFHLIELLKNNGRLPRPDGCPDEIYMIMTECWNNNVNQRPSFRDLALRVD

IC50 ([1]; JH1 kinase domain, ADP-Glo)	IC50 [2]	IC50 ([3]; JH1 kinase domain, ADP-Glo)	IC50 [4]	IC50 [5]	IC50 ([6]; JH1 kinase domain, ADP-Glo)	IC50 ([7]; JH1 kinase domain, ADP-Glo)	IC50 ([1]; JAK3 JH1, ADP-Glo)	IC50 ([3]; JAK1 JH1, ADP-Glo)	IC50 ([6]; TYK2 JH1, ADP-Glo)	IC50 ([7]; JAK2 JH1, ADP-Glo)	Compound
< 100 nM	100 to 1000 nM	< 100 nM	1000 to 5000 nM	50 to 100 nM	< 5 nM	100 to 1000 nM					C[C@@H]1CN(c2nc(-c3cnn(C45CC(C4)C5)c3)cn3ncc(F)c23)C(=O)[C@]1(C#N)C1CC1 [Example 207, (3R,4S)-1-(6-(1-(bicyclo[1.1.1]pentan-1-yl)-1H-pyrazol-4-yl)-3-fluoropyrazolo[1,5-a]pyrazin-4-yl)-3-cyclopropyl-4-methyl-2-oxopyrrolidine-3-carbonitrile]
< 100 nM	1000 to 5000 nM	< 100 nM	1000 to 5000 nM	50 to 100 nM	< 5 nM	< 100 nM					Cc1nn(C)cc1-c1cn2nccc2c(N2C[C@@H](C)[C@@](C#N)(C3CC3)C2=O)n1 [Example 208, (3R,4S)-3-cyclopropyl-1-(6-(1,3-dimethyl-1H-pyrazol-4-yl)pyrazolo[1,5-a]pyrazin-4-yl)-4-methyl-2-oxopyrrolidine-3-carbonitrile]
< 100 nM	1000 to 5000 nM	< 100 nM	5000 to 10000 nM	> 100 nM	5 to 20 nM	100 to 1000 nM					Cc1nc(C)c(-c2cn3nccc3c(N3C[C@@H](C)[C@@](C#N)(C4CC4)C3=O)n2)s1 [Example 209, (3R,4S)-3-cyclopropyl-1-(6-(2,4-dimethylthiazol-5-yl)pyrazolo[1,5-a]pyrazin-4-yl)-4-methyl-2-oxopyrrolidine-3-carbonitrile]
< 100 nM	1000 to 5000 nM	< 100 nM	5000 to 10000 nM	> 100 nM	< 5 nM	100 to 1000 nM					C[C@@H]1CN(c2nc(-c3ccc(=O)n(C(F)F)c3)cn3nccc23)C(=O)[C@]1(C#N)C1CC1 [Example 210, (3R,4S)-3-cyclopropyl-1-(6-(1-(difluoromethyl)-6-oxo-1,6-dihydropyridin-3-yl)pyrazolo[1,5-a]pyrazin-4-yl)-4-methyl-2-oxopyrrolidine-3-carbonitrile]
< 100 nM	1000 to 5000 nM	< 100 nM	1000 to 5000 nM	50 to 100 nM	< 5 nM	100 to 1000 nM					[2H]C([2H])([2H])n1cc(-c2cn3ncc(F)c3c(N3C[C@@H](C)[C@@](C#N)(C4CC4)C3=O)n2)cn1 [Example 211, (3R,4S)-3-cyclopropyl-1-(3-fluoro-6-(1-(methyl-d3)-1H-pyrazol-4-yl)pyrazolo[1,5-a]pyrazin-4-yl)-4-methyl-2-oxopyrrolidine-3-carbonitrile]
100 to 1000 nM	1000 to 5000 nM	100 to 1000 nM	5000 to 10000 nM	> 100 nM	5 to 20 nM	100 to 1000 nM					Cc1nc(-c2cn3nccc3c(N3C[C@@H](C)[C@@](C#N)(C4CC4)C3=O)n2)cs1 [Example 214, (3R,4S)-3-cyclopropyl-4-methyl-1-(6-(2-methylthiazol-4-yl)pyrazolo[1,5-a]pyrazin-4-yl)-2-oxopyrrolidine-3-carbonitrile]
< 100 nM	100 to 1000 nM	< 100 nM	100 to 1000 nM	50 to 100 nM	< 5 nM	< 100 nM					C[C@@H]1CN(c2nc(-c3cnc4c(c3)CCN4)cn3nccc23)C(=O)[C@]1(C#N)C1CC1 [Example 215, (3R,4S)-3-cyclopropyl-1-(6-(2,3-dihydro-1H-pyrrolo[2,3-b]pyridin-5-yl)pyrazolo[1,5-a]pyrazin-4-yl)-4-methyl-2-oxopyrrolidine-3-carbonitrile]
< 100 nM	100 to 1000 nM	< 100 nM	1000 to 5000 nM	> 100 nM	< 5 nM	< 100 nM					C[C@@H]1CN(c2nc(-c3cnn(C4CCCC4)c3)cn3ncc(F)c23)C(=O)[C@]1(C#N)C1CC1 [Example 217, (3R,4S)-1-(6-(1-cyclopentyl-1H-pyrazol-4-yl)-3-fluoropyrazolo[1,5-a]pyrazin-4-yl)-3-cyclopropyl-4-methyl-2-oxopyrrolidine-3-carbonitrile]
	100 to 1000 nM		100 to 1000 nM	50 to 100 nM			< 100 nM	< 100 nM	< 5 nM	< 100 nM	C[C@@H]1CN(c2nc(-c3cnn(C4CCOCC4)c3)cn3ncc(F)c23)C(=O)[C@]1(C#N)C1CC1 [Example 218, (3R,4S)-3-cyclopropyl-1-(3-fluoro-6-(1-(tetrahydro-2H-pyran-4-yl)-1H-pyrazol-4-yl)pyrazolo[1,5-a]pyrazin-4-yl)-4-methyl-2-oxopyrrolidine-3-carbonitrile]
	100 to 1000 nM		100 to 1000 nM	50 to 100 nM			< 100 nM	< 100 nM	< 5 nM	< 100 nM	C[C@@H]1CN(c2nc(-c3cnn(C4CCCCC4)c3)cn3ncc(F)c23)C(=O)[C@]1(C#N)C1CC1 [Example 219, (3R,4S)-1-(6-(1-cyclohexyl-1H-pyrazol-4-yl)-3-fluoropyrazolo[1,5-a]pyrazin-4-yl)-3-cyclopropyl-4-methyl-2-oxopyrrolidine-3-carbonitrile]
	1000 to 5000 nM		1000 to 5000 nM	> 100 nM			< 100 nM	100 to 1000 nM	< 5 nM	100 to 1000 nM	C[C@@H]1CN(c2nc(-c3cnn(CC#N)c3)cn3ncc(F)c23)C(=O)[C@]1(C#N)C1CC1 [Example 220, (3R,4S)-1-(6-(1-(cyanomethyl)-1H-pyrazol-4-yl)-3-fluoropyrazolo[1,5-a]pyrazin-4-yl)-3-cyclopropyl-4-methyl-2-oxopyrrolidine-3-carbonitrile]
	1000 to 5000 nM		> 10000 nM	> 100 nM			100 to 1000 nM	100 to 1000 nM	5 to 20 nM	1000 to 5000 nM	Cc1c(-c2cn3ncc(F)c3c(N3C[C@@H](C)[C@@](C#N)(C4CC4)C3=O)n2)cnn1C [Example 221, (3R,4S)-3-cyclopropyl-1-(6-(1,5-dimethyl-1H-pyrazol-4-yl)-3-fluoropyrazolo[1,5-a]pyrazin-4-yl)-4-methyl-2-oxopyrrolidine-3-carbonitrile]
	1000 to 5000 nM		1000 to 5000 nM	> 100 nM			< 100 nM	< 100 nM	< 5 nM	100 to 1000 nM	C[C@@H]1CN(c2nc(-c3ccc4c(cnn4C)c3)cn3nccc23)C(=O)[C@]1(C#N)C1CC1 [Example 225, (3R,4S)-3-cyclopropyl-4-methyl-1-(6-(1-methyl-1H-indazol-5-yl)pyrazolo[1,5-a]pyrazin-4-yl)-2-oxopyrrolidine-3-carbonitrile trifluoroacetate]
	100 to 1000 nM		1000 to 5000 nM	> 100 nM			< 100 nM	< 100 nM	< 5 nM	100 to 1000 nM	CNC(=O)c1ccc(-c2cn3nccc3c(N3C[C@@H](C)[C@@](C#N)(C4CC4)C3=O)n2)cn1 [Example 227, 5-(4-((3R,4S)-3-cyano-3-cyclopropyl-4-methyl-2-oxopyrrolidin-1-yl)pyrazolo[1,5-a]pyrazin-6-yl)-N-methylpicolinamide trifluoroacetate]

From patent publication US20260297085A1, “1 H-PYRROLO[2,3-B]PYRIDIN-4-YL]-2-OXOPYRROLIDINE-3-CARBONITRILE DERIVATIVES AS TYROSINE KINASE 2 (TYK2) INHIBITORS FOR THE TREATMENT OF INFLAMMATORY DISEASES” (BIOGEN MA INC., priority 2023, published 2026)
